{"source": "patent US20250195508A1", "about": "“COMPOUNDS AND COMPOSITIONS FOR ANITMALARIAL THERAPEUTIC AND PROPHYLACTIC USE” (UNIVERSITY OF CENTRAL FLORIDA RESEARCH FOUNDATION, INC., priority 2022, published 2025)", "key": {"P. falciparum Dd2 [1]": {"tested_on": "P. falciparum Dd2", "experiment": "72 h SYBR Green I assay (Dd2 Proliferation Assay)", "type": "cell-based", "conditions": "Plasmodium falciparum, DD2; SYBR Green I assay; Table 4; read-out: PfDd2 EC50 (nM) ± SD", "description": "Several analogs were synthesized based on the structure of TL5-135 for further study. […] For the data in Table 1, compounds were subjected to in vitro biochemical kinase assays done using recombinant human ephrin type-A receptor 2 (EPHA2) (expressed in insect cells) in a Z′-LYTE® FRET-based kinase assay. P. falciparum Dd2 EC50 was determined using the standard 72 hour SYBR Green I assay (Dd2 Proliferation Assay) as known in the art. […] The structures of compoundsTL5-134, TL5-139, and TL5-145 are shown below.\nIn vitro biochemical kinase assays were done using recombinant human EPHA2 (expressed in insect cells) in a Z′-LYTE® FRET-based kinase assay. P. falciparum Dd2 EC50 was determined using the standard 72 h SYBR Green I assay.\nAsynchronous blood stage P. falciparum Dd2 cultures were plated at 1% parasitemia and 1% hematocrit in a 96-well plate and incubated with serial dilutions of compound for 72 hours at 37° C. in 5% CO2. DMSO concentrations were kept at a sub-lethal percentage (<0.2%). Five micromolar chloroquine was used as a negative parasite growth control. Plates were then frozen at −80° C. and thawed, and 100 μL SYBR Green I-containing lysis buffer (20 mM Tris-HCl, 5 mM EDTA, 0.8% Triton X-100, 0.08% saponin, and 0.0001% SYBR Green I) was added to the wells. After incubation for 45 minutes at room temperature protected from light, fluorescence emission was read with a multimode microplate reader, at 485 nm excitation and 530 nm emission. Results were normalized using untreated and chloroquine-treated controls, and EC50 was determined with CDD Vault.\n(§1) To establish the utility of kinase inhibitor compounds synthesized in the Gray laboratory as a source of novel antimalarial activities, the libraries (containing 1,100 compounds) were screened using the well-established SYBR Green I-based fluorescence assay as known in the art. This screen yielded 34 compounds with EC50<500 nM in the CQ^R Dd2 strain. These hits were subjected to counter-screening against human HepG2 cells using CellTiter 96® AQueous (Promega™) MTS-based cell proliferation assay to identify asexual and liver stage antiplasmodial hits.\n(§2) P. falciparum Dd2 EC50 was determined using SYBR Green I assay. For the selectivity index ([…]) cytotoxicity was determined using CellTiter 96® AQueous MTS. The liver stage assay was performed using P. berghei luciferase expressing parasites. All assays were performed with technical quadruplicates and 3 biological replicates. Assays have a Z′ factor >0.7."}, "HepG2 human liver cell": {"tested_on": "HepG2 human liver cell", "experiment": "CellTiter 96 AQueous MTS cytotoxicity counter-screen (selectivity index)", "type": "cell-based", "description": "as §1, §2"}, "P. falciparum Dd2 [2]": {"tested_on": "P. falciparum Dd2", "experiment": "Rate of killing assay", "type": "cell-based", "conditions": "10×EC50, 12-hour exposure then wash off", "description": "Asynchronous P. falciparum Dd2 cultures were plated at 1% parasitemia, 4% hematocrit into a 24-well plate, incubated at 37° C. in 5% CO2. Wells were treated with 10×EC50 of compound for 12, 24, or 48 hours before the compound was removed. Every 24 hours thereafter for 4 days total, culture samples were washed in 0.5% BSA and stained with 1×SYBR Green I and 60 μM MitoTracker Deep Red FM for 20 minutes at 37° C. After another wash in 0.5% BSA, samples were resuspended in PBS and analyzed via flow cytometry with a CytoFLEX S™, with 100,000 events recorded per sample. For gating, the following controls were used: uninfected RBCs, untreated culture, DHA-treated culture, and untreated culture without MitoTracker stain. Viable parasite percentage was determined by finding the fraction of SYBR Green/MitoTracker double positive cells from the total events. Analysis was performed with FlowJo software Version 10.\nAsynchronous cultures of P. falciparum Dd2 parasites were treated with 10×EC50 of the indicated compound for 12 hours prior to compound wash off. Flow cytometry with SYBR Green I (nuclear dye) and Mitotracker Deep Red FM (mitochondria staining) was done after compound wash-off every 24 hours after for […] (100,000 events/sample) to track parasitemia (data from 3 biological replicates±SEM)."}, "in vitro": {"experiment": "in vitro", "type": "in vitro ADME", "conditions": "mouse liver microsomes; read-out: t1/2 in mouse liver microsomes"}}}
{"smiles": "CCN1CCN(Cc2ccc(NC(=O)c3cc(Cl)cc(NC(=O)c4cncc(-c5cccs5)c4)c3)cc2C(F)(F)F)CC1", "note": "[TL5-135]", "values": [{"measurement": "EC50", "setting": "P. falciparum Dd2 [1]", "value": "80 ± 8", "unit": "nM"}, {"measurement": "Selectivity Index (SI)", "setting": "HepG2 human liver cell", "value": 116}, {"measurement": "Killing profile", "setting": "P. falciparum Dd2 [2]", "value": "pronounced irreversible killing"}, {"measurement": "Killing profile", "setting": "P. falciparum Dd2 [2]; listed as TL-135", "value": "exhibited a killing effect"}, {"measurement": "half-life", "setting": "in vitro", "value": 1.32, "unit": "h"}]}
